Like-named read-outs stand apart in the source and are kept apart here.
Experiments:
ADRB1 (Adrenergic beta) = ADRB1 (Adrenergic beta) (Homo sapiens, UniProt P08588); assay: Receptor panel, Study 3 (agonist/antagonist); format: biochemical; conditions: n = 2
Method: (§1) RESULTS AND DISCUSSION—Selectivity—The compound of Formula (III) was evaluated in three selectivity panels to assess the potential for off-target pharmacology (Table 8). […] The kinase off-target profile of The compound of Formula (III) was assessed in a full human wild-type panel using radiometric kinase activity assays (KinaseProfiler™ and IC50Profiler™; Eurofins Scientific) (Table 9; FIG. 23). The compound of Formula (III) inhibited 4/278 kinases >50% at 1 micromolar, identifying BTK and the three other kinases having analogous Cys residues with the potential for covalent inhibition (BMX, TEC, BLK). […]. The cellular kinase selectivity of The compound of Formula (III) was established in native Ramos B cell kinome assays (KiNativ™; ActivX) confirmed BTK as the primary target with inhibition of BLK and TEC inhibition detected (Table 10).

ADRB2 (Adrenergic beta) = ADRB2 (Adrenergic beta) (Homo sapiens, UniProt P07550); assay: Receptor panel, Study 3 (agonist/antagonist); format: biochemical; conditions: n = 2
Method: as §1

D2L (Dopamine 2L) = D2L (Dopamine 2L) (Homo sapiens, UniProt P14416); assay: Receptor panel, Study 3 (agonist/antagonist); format: biochemical; conditions: n = 2
Method: as §1

DOP (Opioid delta) = DOP (Opioid delta) (Homo sapiens, UniProt P41143); assay: Receptor panel, Study 3 (agonist/antagonist); format: biochemical; conditions: n = 2; comment 20%
Method: as §1

H1 (Histamine H1) = H1 (Histamine H1) (Homo sapiens, UniProt P35367); assay: Receptor panel, Study 3 (agonist/antagonist); format: biochemical; conditions: n = 2
Method: as §1

BLK = molecular target: T1, BLK (Homo sapiens, UniProt P51451); assay: Eurofins KinaseProfiler/IC50Profiler radiometric kinase activity assay; format: biochemical
T1 construct: purchased Eurofins Scientific
Method: as §1

BMX = molecular target: T2, BMX (Homo sapiens, UniProt P51813); assay: as above; format: biochemical
T2 construct: purchased Eurofins Scientific
Method: as §1

BTK = BTK (Homo sapiens, UniProt Q06187); assay: as above; format: biochemical
Method: as §1

TEC = molecular target: T3, TEC (Homo sapiens, UniProt P42680); assay: as above; format: biochemical
T3 construct: purchased Eurofins Scientific
T3 sequence (P42680 1-631): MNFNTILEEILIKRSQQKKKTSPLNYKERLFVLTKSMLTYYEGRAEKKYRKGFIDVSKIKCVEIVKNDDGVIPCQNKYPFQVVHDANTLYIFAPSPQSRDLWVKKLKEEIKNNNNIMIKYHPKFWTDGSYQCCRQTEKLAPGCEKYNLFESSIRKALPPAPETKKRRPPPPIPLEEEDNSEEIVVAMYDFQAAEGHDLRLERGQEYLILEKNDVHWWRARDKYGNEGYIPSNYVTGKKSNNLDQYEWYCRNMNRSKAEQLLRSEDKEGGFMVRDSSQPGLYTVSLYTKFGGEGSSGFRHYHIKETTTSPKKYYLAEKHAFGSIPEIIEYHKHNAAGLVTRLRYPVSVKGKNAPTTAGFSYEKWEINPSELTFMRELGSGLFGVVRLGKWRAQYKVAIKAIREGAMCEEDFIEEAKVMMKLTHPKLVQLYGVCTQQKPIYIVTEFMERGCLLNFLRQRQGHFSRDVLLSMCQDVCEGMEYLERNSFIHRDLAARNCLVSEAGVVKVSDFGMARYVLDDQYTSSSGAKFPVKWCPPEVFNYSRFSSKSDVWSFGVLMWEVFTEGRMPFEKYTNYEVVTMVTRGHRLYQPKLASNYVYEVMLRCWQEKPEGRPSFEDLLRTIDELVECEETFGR
Method: as §1

PXR = assay: Puracyp DPX2 luciferase-reporter cell line (CYP3A4 induction); format: in vitro ADME
Method: To assess the potential of the compound of Formula (III) to be a time-dependent inhibitor of CYP3A, human liver microsomes were preincubated for 30 minutes at 37° C. with the compound of Formula (III) at concentrations up to 10 μM, and CYP3A activity was measured using testosterone as a probe substrate. […] The potential of the compound of Formula (III) to induce CYPs at the transcriptional level was assessed using Puracyp™ DPX2 (CYP3A4, PXR) and DRE (CYP1A2, AhR) luciferase-reporter cell lines; rifampicin and omeprazole were used as positive controls for CYP3A and CYP1A induction, respectively. The activation by the compound of Formula (III) was <20% of positive control values for PXR (6.6% and 14.1% at 1 and 10 μM change, respectively) or AhR (0.1% and 0.3% change, respectively). […] Potential involvement of various CYP isoforms in the metabolism of the compound of Formula (III) was investigated by measuring the parent compound remaining after 1-hour incubation with the compound of Formula (III) (1 μM) with recombinant CYPs (rCYPs) at 100 pmol P450/mL in the presence of 1 mM NADPH at 37° C. The only isozyme that produced notable the compound of Formula (III) turnover with <1% parent remaining after 1-hour incubation was CYP3A4 (FIG. 24). […]

[1] = test system: OCI-LY3 (Myd88/CARD11/A20 mutant); assay: Antiproliferative activity, 8 days; format: cell-based, human
Method: In Vitro Activity in DLBCL Cell Lines—NFκB signaling regulates the secretion of multiple cytokines, including interleukin (IL)-6 and IL-10. Secretion of IL-6 and -10 by ABC-DLBCL OCI-LY-10 cells was measured using a MesoScale assay. […] To determine the anti-proliferative activity of the compound of formula (III), several ABC-DLBCL cell lines—OCI-LY-3, OCI-LY-10, TMD8, and HBL-1—were treated for 8 days. […] The OCI-LY-3 cell line, which harbors a CARD11 mutation downstream of BTK in the NF-κB signaling pathway, was completely insensitive to the compound of Formula (III) up to 2 μM. In 2 experiments, OCI-LY-3 cells were insensitive to the compound of Formula (III) at all concentrations up to 10 μM.

[2] = 10-point concentration response, read-out: IC50 (IC50 Profiler)

H1 (Histamine H1), sequence (P35367 whole entry): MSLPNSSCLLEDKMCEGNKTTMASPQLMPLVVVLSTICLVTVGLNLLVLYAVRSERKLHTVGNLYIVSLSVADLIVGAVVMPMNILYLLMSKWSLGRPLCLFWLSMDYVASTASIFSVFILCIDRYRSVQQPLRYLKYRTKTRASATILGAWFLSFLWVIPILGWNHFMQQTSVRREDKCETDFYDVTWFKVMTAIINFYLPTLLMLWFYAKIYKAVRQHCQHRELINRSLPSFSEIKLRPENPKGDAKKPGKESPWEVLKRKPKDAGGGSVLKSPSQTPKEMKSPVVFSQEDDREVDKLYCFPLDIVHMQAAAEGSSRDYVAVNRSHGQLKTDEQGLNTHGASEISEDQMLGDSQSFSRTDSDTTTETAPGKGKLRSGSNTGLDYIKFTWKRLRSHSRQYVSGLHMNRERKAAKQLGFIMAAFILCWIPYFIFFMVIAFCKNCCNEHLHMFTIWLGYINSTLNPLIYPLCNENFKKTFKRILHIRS
T2 sequence (P51813 whole entry): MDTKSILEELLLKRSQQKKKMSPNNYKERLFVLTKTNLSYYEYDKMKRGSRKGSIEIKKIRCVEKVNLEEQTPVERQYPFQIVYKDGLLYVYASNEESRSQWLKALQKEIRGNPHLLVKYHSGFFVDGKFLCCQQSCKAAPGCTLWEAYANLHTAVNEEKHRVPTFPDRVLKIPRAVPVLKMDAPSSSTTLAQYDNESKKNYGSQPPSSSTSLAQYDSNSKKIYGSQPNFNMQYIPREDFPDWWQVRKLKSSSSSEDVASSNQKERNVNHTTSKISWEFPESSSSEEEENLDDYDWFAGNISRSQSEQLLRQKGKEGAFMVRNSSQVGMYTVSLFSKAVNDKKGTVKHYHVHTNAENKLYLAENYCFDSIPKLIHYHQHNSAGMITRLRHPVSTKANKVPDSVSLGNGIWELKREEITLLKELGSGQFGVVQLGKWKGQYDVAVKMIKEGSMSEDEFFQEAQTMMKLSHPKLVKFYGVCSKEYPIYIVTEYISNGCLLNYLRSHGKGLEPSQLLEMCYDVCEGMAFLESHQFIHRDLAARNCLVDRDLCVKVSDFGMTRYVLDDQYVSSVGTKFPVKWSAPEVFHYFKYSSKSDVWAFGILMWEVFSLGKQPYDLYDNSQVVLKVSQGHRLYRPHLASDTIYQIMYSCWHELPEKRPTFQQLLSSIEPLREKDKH
T1 sequence (P51451 whole entry): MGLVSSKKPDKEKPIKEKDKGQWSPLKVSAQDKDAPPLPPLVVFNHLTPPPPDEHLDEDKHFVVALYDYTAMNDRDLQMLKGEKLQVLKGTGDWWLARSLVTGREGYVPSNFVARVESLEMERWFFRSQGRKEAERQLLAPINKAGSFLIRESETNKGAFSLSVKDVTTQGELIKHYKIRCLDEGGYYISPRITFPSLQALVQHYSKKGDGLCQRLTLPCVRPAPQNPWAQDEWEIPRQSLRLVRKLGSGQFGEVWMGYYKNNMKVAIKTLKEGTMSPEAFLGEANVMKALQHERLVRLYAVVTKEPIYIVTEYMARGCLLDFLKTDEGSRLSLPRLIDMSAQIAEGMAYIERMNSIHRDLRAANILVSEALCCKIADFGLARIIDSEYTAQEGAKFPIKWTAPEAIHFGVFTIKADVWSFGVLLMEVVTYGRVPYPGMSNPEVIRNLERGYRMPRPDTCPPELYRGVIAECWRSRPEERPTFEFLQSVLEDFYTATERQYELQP
BTK, sequence (Q06187 whole entry): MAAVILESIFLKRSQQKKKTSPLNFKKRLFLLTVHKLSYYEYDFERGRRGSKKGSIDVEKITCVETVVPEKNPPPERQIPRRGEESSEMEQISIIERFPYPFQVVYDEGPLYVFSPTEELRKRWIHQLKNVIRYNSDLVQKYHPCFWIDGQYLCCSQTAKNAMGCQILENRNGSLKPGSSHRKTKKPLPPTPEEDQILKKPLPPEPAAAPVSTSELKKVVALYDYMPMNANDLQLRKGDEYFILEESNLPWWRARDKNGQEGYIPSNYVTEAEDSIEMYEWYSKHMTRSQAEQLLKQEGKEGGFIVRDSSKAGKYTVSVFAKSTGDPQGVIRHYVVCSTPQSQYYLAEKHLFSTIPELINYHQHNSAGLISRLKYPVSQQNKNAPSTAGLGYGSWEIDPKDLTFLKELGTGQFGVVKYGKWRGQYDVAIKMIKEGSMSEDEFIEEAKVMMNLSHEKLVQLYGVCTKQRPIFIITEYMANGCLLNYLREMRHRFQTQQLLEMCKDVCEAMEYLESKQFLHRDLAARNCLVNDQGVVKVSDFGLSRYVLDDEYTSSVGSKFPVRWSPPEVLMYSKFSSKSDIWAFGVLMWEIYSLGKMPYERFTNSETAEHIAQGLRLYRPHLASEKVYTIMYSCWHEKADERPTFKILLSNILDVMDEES
D2L (Dopamine 2L), sequence (P14416 whole entry): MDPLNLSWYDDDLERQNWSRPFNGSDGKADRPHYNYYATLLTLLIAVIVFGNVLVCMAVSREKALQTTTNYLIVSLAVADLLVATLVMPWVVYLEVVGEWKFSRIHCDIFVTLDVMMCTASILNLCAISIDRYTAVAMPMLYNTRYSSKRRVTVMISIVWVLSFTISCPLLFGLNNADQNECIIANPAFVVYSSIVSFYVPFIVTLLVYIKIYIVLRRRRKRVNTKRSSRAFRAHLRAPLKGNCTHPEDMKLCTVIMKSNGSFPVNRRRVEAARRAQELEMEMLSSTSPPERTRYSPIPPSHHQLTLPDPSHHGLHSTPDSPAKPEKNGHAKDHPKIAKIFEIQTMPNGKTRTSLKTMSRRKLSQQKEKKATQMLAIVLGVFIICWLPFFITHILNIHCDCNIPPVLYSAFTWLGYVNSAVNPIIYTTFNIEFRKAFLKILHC
ADRB1 (Adrenergic beta), sequence (P08588 whole entry, species assumed): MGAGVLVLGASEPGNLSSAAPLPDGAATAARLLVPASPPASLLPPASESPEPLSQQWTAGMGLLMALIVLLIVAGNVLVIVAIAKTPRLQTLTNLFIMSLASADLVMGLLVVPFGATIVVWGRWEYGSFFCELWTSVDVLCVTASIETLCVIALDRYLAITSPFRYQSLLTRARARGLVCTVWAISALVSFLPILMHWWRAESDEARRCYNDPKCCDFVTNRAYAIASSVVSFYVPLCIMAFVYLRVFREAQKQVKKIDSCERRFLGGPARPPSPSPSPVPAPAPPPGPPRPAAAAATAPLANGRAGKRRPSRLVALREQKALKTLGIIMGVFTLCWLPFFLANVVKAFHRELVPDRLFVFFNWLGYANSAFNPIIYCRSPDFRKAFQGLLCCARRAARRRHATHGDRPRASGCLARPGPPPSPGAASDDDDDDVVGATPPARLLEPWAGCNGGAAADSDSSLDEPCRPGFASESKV
ADRB2 (Adrenergic beta), sequence (P07550 whole entry, species assumed): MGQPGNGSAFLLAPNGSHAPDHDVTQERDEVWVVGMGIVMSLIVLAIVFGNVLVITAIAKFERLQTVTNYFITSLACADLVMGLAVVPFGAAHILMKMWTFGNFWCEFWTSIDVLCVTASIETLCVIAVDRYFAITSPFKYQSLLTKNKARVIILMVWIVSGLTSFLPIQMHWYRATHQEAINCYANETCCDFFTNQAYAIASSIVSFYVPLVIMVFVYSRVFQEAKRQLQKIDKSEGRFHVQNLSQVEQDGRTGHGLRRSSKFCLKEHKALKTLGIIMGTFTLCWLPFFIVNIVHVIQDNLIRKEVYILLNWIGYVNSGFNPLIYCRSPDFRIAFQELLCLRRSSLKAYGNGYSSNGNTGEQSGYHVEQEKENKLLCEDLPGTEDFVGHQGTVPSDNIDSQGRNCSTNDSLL
DOP (Opioid delta), sequence (P41143 whole entry): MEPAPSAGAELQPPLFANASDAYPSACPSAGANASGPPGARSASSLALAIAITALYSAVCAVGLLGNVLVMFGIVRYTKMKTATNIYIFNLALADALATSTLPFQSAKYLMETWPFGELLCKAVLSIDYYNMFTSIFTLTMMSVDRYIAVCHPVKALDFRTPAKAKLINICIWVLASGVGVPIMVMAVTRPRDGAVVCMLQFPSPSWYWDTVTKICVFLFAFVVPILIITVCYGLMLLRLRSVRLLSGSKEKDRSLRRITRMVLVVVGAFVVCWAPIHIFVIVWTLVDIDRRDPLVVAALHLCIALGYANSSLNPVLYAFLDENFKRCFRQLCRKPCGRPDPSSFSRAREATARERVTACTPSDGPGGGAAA

C=CC(=O)N[C@H]1CCC[C@H]1NC(=O)c1sc2nccc3c2c1NC(=O)N3c1cnc(CC(C)C)cc1C (atropisomer, axis not shown) [compound of Formula (III), N-((1R,2S)-2-Acrylamidocyclopentyl)-5-(S)-(6-isobutyl-4-methylpyridin-3-yl)-4-oxo-4,5-dihydro-3H-1-thia-3,5,8-triazaacenaphthylene-2-carboxamide]
IC50 (ADRB1 (Adrenergic beta)): > 12.5 µM
IC50 (ADRB2 (Adrenergic beta)): > 12.5 µM
IC50 (D2L (Dopamine 2L)): > 12.5 µM
IC50 (DOP (Opioid delta)): > 10 µM
IC50 (H1 (Histamine H1); read-out: Agonist IC50): > 10 µM
IC50 (H1 (Histamine H1); read-out: Antagonist IC50): > 10 µM
inhibition at 1 µM (BLK; 1 μM): 54%
IC50 (BLK; [2]): 3.13 µM
inhibition at 1 µM (BMX; 1 μM): 92%
IC50 (BMX; [2]): 0.172 µM
inhibition at 1 µM (BTK; 1 μM): 98%
IC50 (BTK; [2]): 0.558 µM
inhibition at 1 µM (TEC; 1 μM): 88%
IC50 (TEC; [2]): 0.303 µM
PXR activation, % of positive control (rifampicin) (PXR; 1 μM): 6.6%
PXR activation, % of positive control (rifampicin) (PXR; 10 μM): 14.1%
sensitivity at all concentrations up to 10 μM ([1]; 2 experiments): insensitive
IC50 ([1]; Homo sapiens, OCI-Ly3, 192 h, 8 days, n = 4): > 2 µM

Source: patent publication US12622910B2, “Inhibitors of Bruton's tyrosine kinase and methods of their use” (Janssen Pharmaceutica NV, priority 2021, dated 2026)
